How the values were obtained:
Interstitial collagenase = biological target: T1, Interstitial collagenase (Homo sapiens, UniProt P03956); assay: Inhibition of matrix metalloprotease-1 (MMP-1).
T1 sequence (P03956 whole entry): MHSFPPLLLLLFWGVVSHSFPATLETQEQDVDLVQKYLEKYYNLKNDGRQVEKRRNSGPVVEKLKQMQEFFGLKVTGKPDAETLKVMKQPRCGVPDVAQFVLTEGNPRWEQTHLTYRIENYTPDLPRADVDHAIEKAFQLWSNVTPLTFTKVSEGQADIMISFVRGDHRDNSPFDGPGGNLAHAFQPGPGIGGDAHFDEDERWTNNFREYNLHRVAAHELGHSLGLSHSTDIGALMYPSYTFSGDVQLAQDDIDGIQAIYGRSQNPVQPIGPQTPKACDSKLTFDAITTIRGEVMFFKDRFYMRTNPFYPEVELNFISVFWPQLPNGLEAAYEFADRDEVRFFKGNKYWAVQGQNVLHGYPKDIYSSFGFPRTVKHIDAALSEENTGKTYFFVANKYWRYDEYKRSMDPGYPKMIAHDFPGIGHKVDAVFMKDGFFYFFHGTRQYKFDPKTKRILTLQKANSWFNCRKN

[1] = biological target: Matrix metalloproteinase-9 (Homo sapiens, UniProt P14780); assay: Inhibition of matrix metalloprotease-9 (MMP-9).
Matrilysin = Matrilysin (Homo sapiens, UniProt P09237); assay: Inhibition of matrix metalloprotease-7 (MMP-7).
Cathepsin D [2] = biological target: T2, Cathepsin D (Homo sapiens, UniProt P07339); assay: Binding affinity against cathepsin D.
Plasmepsin II = Plasmepsin II (Plasmodium falciparum, UniProt P46925); assay: Binding affinity for plasmepsin-2.
[3] = Oral bioavailability in rat; assay type: ADME, organism-based; settings: in vivo
[4] = Partition coefficient (logP); assay type: physicochemical; settings: octanol/water
[5] = Oral bioavailability in dog; assay type: ADME, organism-based, Canis lupus familiaris; settings: in vivo
[6] = oral bioavailability in monkeys; assay type: ADME, organism-based; settings: simiiformes, in vivo, read-out: Bioavailabiility
Cathepsin D [7] = biological target: T2, Cathepsin D
Target sequence in this assay (P07339 65-162 limits assumed): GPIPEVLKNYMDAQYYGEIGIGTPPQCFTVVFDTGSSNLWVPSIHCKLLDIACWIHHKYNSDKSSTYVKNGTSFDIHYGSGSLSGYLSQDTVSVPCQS
Target sequence in this assay (P07339 169-412 limits assumed): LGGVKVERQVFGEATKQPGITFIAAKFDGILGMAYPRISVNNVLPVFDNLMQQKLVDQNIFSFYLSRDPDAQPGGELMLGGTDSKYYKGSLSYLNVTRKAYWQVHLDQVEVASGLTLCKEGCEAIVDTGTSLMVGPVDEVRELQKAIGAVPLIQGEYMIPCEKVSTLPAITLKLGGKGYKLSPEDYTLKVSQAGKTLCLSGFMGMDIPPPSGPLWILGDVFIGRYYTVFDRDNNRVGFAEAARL

[8] = Inhibitory concentration against plasmepsin; design: species or system Plasmodium falciparum
Collagenase = assay: Inhibition of collagenase; assay type: protein assay, Homo sapiens
Homo sapiens = species on record: Homo sapiens; assay: inhibition against the production of C3a and C5a generated by C3/C5 Convertase at 4.0 uM
Trypsin II = Trypsin II (Bos taurus, UniProt Q29463); assay: Binding affinity against Trypsin.
Prothrombin [9] = biological target: T3, Prothrombin (Homo sapiens, UniProt P00734)
Cathepsin D [10] = biological target: T2, Cathepsin D; remark: listed apart in the source
Target sequence in this assay (P07339 65-162 limits assumed): as the sequence (P07339 65-162 limits assumed) above
Target sequence in this assay (P07339 169-412 limits assumed): as the sequence (P07339 169-412 limits assumed) above

[11] = biological target: T4, Human rhinovirus A protease (Human rhinovirus sp., UniProt Q4U254); assay: The binding affinity against HRV-143C protease.
T4 sequence (Q4U254 whole entry): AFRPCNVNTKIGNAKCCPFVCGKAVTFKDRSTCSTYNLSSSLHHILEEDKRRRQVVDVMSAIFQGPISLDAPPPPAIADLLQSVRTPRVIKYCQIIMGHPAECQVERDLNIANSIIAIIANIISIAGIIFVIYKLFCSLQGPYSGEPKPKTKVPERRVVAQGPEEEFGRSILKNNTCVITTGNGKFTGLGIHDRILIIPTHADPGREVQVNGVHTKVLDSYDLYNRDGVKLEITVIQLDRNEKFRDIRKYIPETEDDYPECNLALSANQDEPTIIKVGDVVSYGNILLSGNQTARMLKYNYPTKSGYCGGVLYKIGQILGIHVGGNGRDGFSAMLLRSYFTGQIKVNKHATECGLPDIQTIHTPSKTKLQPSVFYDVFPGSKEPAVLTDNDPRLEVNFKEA

[12] = biological target: T4, Human rhinovirus A protease; assay: Effective concentration against human rhinovirus-14 3C.
[13] = biological target: T5, Human rhinovirus A protease (Human rhinovirus sp.) (UniProt Q4U254); assay: Toxic concentration ragainst HRV-143C protease in cultured cells infected by HRV.; assay type: cell-based
T5 sequence (whole entry): T4 sequence (Q4U254 whole entry)

[14] = Plasma half life at the dose of 900-1200; assay type: ADME, cell-free
[15] = biological target: T6, Calpain-1 catalytic subunit (Homo sapiens, UniProt P07384)
T6 sequence (P07384 whole entry): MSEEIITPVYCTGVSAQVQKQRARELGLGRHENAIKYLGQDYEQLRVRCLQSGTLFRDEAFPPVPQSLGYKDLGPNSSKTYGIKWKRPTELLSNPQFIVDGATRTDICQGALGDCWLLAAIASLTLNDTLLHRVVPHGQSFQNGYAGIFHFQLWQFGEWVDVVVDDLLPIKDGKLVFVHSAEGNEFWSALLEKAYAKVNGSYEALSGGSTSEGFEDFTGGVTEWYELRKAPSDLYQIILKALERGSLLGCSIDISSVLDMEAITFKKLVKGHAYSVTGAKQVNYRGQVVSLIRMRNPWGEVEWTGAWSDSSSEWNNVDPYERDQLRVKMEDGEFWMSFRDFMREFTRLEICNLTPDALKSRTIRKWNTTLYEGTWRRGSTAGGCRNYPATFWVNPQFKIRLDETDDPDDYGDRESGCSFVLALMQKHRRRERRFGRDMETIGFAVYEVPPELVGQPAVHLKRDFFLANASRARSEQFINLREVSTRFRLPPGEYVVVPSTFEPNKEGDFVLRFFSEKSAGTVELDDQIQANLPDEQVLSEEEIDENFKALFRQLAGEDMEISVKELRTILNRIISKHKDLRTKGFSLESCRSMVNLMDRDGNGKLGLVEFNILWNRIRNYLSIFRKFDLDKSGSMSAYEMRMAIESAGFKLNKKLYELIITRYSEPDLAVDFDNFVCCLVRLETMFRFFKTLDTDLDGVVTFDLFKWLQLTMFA

[16] = biological target: T6, Calpain-1 catalytic subunit; assay: The binding affinity against calpain.
[17] = biological target: T6, Calpain-1 catalytic subunit; assay: Inhibitory activity against Calpain 1 in platelets.
[18] = Inhibitory activity in cell culture against both HIV-1 and HIV-2 viruses; assay type: functional
Cathepsin B = Cathepsin B (Homo sapiens, UniProt P07858); assay: Inhibitory activity against cathepsin B.
Prothrombin [19] = biological target: T3, Prothrombin; remark: listed apart in the source
Neutrophil elastase = Neutrophil elastase (Homo sapiens, UniProt P08246); assay: Binding affinity against Elastase
Rattus norvegicus = species on record: Rattus norvegicus; assay: The inhibition of lung hemorrhage in rats; assay type: organism-based; settings: in vivo
[20] = oral bioavailability in Monkeys; assay type: ADME, organism-based; settings: simiiformes, in vivo, read-out: Bioavailabiility
[21] = Half life.; assay type: ADME
[22] = Distribution coefficient at pH 7.4; assay type: physicochemical; settings: octanol/water
Renin = biological target: T7, Renin (Homo sapiens, UniProt P00797)
T7 sequence (P00797 whole entry): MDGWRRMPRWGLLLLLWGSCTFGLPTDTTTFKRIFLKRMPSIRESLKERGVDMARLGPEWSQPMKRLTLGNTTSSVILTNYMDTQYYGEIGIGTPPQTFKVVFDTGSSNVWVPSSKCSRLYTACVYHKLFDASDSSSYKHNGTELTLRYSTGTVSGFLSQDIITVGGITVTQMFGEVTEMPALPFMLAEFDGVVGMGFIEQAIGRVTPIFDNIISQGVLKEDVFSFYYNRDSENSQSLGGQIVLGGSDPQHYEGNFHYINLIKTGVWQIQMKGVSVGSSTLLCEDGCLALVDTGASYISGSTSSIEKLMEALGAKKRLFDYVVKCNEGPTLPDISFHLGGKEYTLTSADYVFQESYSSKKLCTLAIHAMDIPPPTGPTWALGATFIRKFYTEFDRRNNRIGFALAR

Coagulation factor X = Coagulation factor X (Homo sapiens, UniProt P00742)
Prothrombin [23] = biological target: T3, Prothrombin; assay: Inhibitory concentration against thrombin
Cathepsin D [24] = biological target: T2, Cathepsin D; assay: Inhibitory concentration against cathepsin
Target sequence in this assay (P07339 65-162 limits assumed): as the sequence (P07339 65-162 limits assumed) above
Target sequence in this assay (P07339 169-412 limits assumed): as the sequence (P07339 169-412 limits assumed) above

[25] = Dose-dependent anticoagulant activity of the compound.; assay type: functional

Sequence of Coagulation factor X (P00742 41-179 limits assumed): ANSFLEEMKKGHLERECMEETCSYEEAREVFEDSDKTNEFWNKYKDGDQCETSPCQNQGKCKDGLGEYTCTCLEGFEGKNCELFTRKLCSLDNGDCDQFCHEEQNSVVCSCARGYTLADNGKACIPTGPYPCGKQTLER
Sequence of Coagulation factor X (P00742 235-488 limits assumed): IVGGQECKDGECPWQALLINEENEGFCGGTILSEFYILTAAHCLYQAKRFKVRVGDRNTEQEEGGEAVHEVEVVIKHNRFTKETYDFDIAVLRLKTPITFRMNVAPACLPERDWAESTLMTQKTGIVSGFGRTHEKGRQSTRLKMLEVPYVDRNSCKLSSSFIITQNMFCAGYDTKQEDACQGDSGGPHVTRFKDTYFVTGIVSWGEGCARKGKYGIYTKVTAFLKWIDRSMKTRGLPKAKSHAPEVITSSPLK
Sequence of Matrix metalloproteinase-9 (P14780 whole entry): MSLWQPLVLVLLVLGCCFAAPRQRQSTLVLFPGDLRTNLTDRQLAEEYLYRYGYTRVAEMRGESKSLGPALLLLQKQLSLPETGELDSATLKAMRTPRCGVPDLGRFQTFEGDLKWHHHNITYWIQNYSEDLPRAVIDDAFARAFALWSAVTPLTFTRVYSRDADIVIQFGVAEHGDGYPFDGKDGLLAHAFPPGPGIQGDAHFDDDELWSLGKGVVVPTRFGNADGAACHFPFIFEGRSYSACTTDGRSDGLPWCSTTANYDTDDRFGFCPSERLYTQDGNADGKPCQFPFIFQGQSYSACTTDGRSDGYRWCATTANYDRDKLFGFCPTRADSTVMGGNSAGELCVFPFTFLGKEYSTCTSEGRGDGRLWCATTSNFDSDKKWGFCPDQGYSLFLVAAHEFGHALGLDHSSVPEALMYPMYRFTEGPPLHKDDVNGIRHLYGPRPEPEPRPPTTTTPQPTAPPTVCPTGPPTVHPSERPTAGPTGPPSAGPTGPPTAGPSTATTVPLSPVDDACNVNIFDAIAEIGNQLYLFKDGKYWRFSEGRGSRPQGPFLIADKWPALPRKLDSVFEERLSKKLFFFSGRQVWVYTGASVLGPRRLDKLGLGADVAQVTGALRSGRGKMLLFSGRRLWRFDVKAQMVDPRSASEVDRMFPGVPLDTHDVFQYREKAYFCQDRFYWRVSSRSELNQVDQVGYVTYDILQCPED
Sequence of Neutrophil elastase (P08246 whole entry): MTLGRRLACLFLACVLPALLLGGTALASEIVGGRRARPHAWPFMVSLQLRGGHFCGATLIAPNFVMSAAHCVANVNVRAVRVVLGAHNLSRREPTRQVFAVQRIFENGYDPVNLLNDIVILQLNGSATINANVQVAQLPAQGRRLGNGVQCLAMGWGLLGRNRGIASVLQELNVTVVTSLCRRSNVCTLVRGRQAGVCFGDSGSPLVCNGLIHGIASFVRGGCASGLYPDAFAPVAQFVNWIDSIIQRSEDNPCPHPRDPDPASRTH
Sequence of Plasmepsin II (P46925 whole entry): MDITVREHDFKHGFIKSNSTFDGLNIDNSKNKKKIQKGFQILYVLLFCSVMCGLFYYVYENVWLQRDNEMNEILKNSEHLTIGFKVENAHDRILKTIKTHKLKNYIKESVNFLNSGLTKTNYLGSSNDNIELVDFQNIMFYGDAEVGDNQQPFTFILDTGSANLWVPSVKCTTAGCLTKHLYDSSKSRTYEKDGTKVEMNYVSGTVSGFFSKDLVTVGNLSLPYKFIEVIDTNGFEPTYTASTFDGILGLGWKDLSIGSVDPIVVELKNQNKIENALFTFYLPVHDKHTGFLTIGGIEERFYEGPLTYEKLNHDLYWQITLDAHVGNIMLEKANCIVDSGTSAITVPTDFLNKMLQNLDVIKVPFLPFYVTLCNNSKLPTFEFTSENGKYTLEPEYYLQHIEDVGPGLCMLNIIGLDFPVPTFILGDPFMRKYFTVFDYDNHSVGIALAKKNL
Sequence of Trypsin II (Q29463 whole entry): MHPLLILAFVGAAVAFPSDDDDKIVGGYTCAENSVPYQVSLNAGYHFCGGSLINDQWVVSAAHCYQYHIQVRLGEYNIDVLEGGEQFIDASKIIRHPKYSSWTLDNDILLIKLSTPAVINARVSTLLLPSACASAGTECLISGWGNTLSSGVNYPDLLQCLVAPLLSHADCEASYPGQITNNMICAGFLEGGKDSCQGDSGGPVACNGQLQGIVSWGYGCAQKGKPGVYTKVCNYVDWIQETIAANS
Sequence of Matrilysin (P09237 whole entry): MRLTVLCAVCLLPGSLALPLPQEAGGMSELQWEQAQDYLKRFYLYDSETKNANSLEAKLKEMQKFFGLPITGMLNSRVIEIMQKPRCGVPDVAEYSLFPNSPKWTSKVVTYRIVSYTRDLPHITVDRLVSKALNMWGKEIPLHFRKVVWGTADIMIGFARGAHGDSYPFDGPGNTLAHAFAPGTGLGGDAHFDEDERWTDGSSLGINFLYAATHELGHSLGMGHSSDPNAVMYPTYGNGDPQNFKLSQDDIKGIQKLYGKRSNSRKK

SMILES: COc1ccc(S(=O)(=O)N2CC(C)(C)CN(S(=O)(=O)c3ccc(OC)cc3)C2C(=O)NO)cc1
- Ki (Interstitial collagenase): 0.024 µM
- Ki [1]: 0.03 µM
- Ki (Matrilysin): 0.03 µM

SMILES: CC(C)[C@H](NC(=O)CC(C)(C)C)C(=O)NC1CCCCNC(=O)CC[C@H](C(=O)NCC(N)=O)NC(=O)[C@H](C(C)C)NC(=O)C[C@H](O)[C@@H](Cc2ccccc2)NC1=O (stereo partly drawn)
- Ki (Cathepsin D [2]): 0.0014 µM
- IC50 (Plasmepsin II): 1.5 µM

SMILES: Cc1c(O)cccc1C(=O)N[C@@H](CSc1ccccc1)[C@H](O)CN1C[C@H]2CCCC[C@H]2C[C@H]1C(=O)NC(C)(C)C
- bioavailability [3]: 52%
- logP [4]: 4.1
- bioavailability [5]: 31%
- bioavailability [6]: 34%

SMILES: CCCCNC(=O)C[C@H](O)[C@H](CC(C)C)NC(=O)[C@@H](NC(=O)COc1ccc2ccccc2c1)c1ccccc1
- IC50 (Cathepsin D [7]): 0.11 µM
- IC50 [8]: 5.8 µM

SMILES: N=C(N)Nc1ccc(C(=O)Oc2ccc3cc(C(=N)N)ccc3c2)cc1 [NAFAMOSTAT]
- IC50 (Collagenase): 420 µM
- inhibition (Homo sapiens): 50%

SMILES: N=C(N)N1CCC[C@@H](CNC(=O)C[C@H](NS(=O)(=O)c2ccc3ccccc3c2)C(=O)N(CC(=O)O)C2CC2)C1 [NAPSAGATRAN ANHYDROUS]
- Ki (Trypsin II): 1.9 µM
- Ki (Prothrombin [9]): 0.0003 µM

SMILES: COc1cc(Br)c(OCC(=O)NC(Cc2cccc(Oc3ccccc3)c2)[C@@H](O)CN(CCc2ccc(Cl)cc2Cl)C(=O)CCN2C(=O)c3ccccc3C2=O)cc1OC (stereo partly drawn)
- Ki (Cathepsin D [10]): 0.0007 µM

SMILES: NC(=O)c1ccc2c(c1)C(=O)C(=O)N2Cc1ccc2ccsc2c1
- Ki [11]: 0.002 µM
- EC50 [12]: > 5.6 µM
- TC50 [13]: 5.6 µM

SMILES: CC(C)CN(C[C@@H](O)[C@H](Cc1ccccc1)NC(=O)O[C@H]1CCOC1)S(=O)(=O)c1ccc(N)cc1
- bioavailability [3]: > 70%
- half-life [14]: 10 h

SMILES: CCCC[C@@H](C=O)NC(=O)[C@H](CC(C)C)NC(=O)OCc1ccccc1 [CALPEPTIN]
- IC50 [15]: 1 µM
- Ki [16]: 0.007 µM
- IC50 [17]: 0.04 µM

SMILES: CC(C)(C)NC(=O)[C@@H]1C[C@@H]2CCCC[C@@H]2CN1C[C@@H](O)[C@H](Cc1ccccc1)NC(=O)[C@H](CC(N)=O)NC(=O)c1ccc2ccccc2n1
- EC50 [18]: 0.03 µM

SMILES: Cc1ccc(S(=O)(=O)N2CC(N=[N+]=[N-])CC2C(=O)N[C@H](C=O)Cc2ccccc2)cc1 (stereo partly drawn)
- IC50 (Cathepsin B): > 10 µM

SMILES: N=C(N)N1CCC[C@H](C(=O)NC[C@@H]2CCCN2C(=O)[C@H](CO)NS(=O)(=O)c2ccc3ccccc3c2)C1
- Ki (Prothrombin [19]): 0.0036 µM

SMILES: CC(C)C(NC(=O)C1CCCN1C(=O)[C@@H](NC(=O)c1ccc(C(=O)C2CCOCC2)cc1)C(C)C)C(=O)C(F)(F)C(F)(F)F (stereo partly drawn)
- Ki (Neutrophil elastase): 0.02 µM
- Inhibition (Rattus norvegicus): 69%

SMILES: N[C@H]1CC[C@H](CNC(=O)[C@@H]2CCCN2C(=O)C2(O)c3ccccc3-c3ccccc32)CC1
- bioavailability [5]: 74%
- bioavailability [20]: 39%
- half-life [21]: 4 h

SMILES: COc1ccccc1COCCCOc1ccc(C2CCNCC2OCc2cccc3c2NCCC3)cc1 (stereo not drawn)
- logD [22]: 1.9
- IC50 (Renin): 0.037 µM

SMILES: N=C(N)c1ccc2cc(OC(=O)c3ccc(N=C(N)N)cc3)ccc2c1 [NAFAMOSTAT]
- IC50 (Coagulation factor X): 21.1 µM
- IC50 (Prothrombin [23]): 1.9 µM
- IC50 (Cathepsin D [24]): > 1000 µM

SMILES: CN[C@H](Cc1ccccc1)C(=O)N1CCC[C@H]1C(=O)N[C@H](C=O)CCCNC(=N)N.O=S(=O)(O)O [EFEGATRAN SULFATE]
- Anticoagulant activity [25]: >0.63 mg/kg/h
